Consider six compounds from US20250179066A1, “ZWITTERIONIC ANTIBACTERIAL COMPOUNDS” (Hoffmann-La Roche Inc., priority 2022, published 2025).

Structures can show the parent of a compound that is named as a salt.

In this experiment the test system is Acinetobacter baumannii ATCC17961. In words: Antimicrobial susceptibility testing: 90% growth inhibitory concentration (IC90) determination. The format is cell-based. The following applies: Acinetobacter baumannii, ATCC17961, 16 h, 90% growth inhibitory concentration against Acinetobacter baumannii ATCC17961, Iso-Sensitest broth, OD 600 nm over 16 h; read-out: ATCC 17961 IC90. The method, then: The in vitro antimicrobial activity of the compounds was determined according to the following procedure: The assay used a 10-points Iso-Sensitest broth medium to measure quantitatively the in vitro activity of the compounds against Acinetobacter baumannii ATCC17961. Stock compounds in DMSO were serially twofold diluted (e.g. range from 10 to 0.0195 μM final concentration) in 384 wells microtiter plates and inoculated with 49 μL the bacterial suspension in Iso-Sensitest medium to have a final cell concentration of ˜5×10^(5) CFU/mL in a final volume/well of 50 μL/well. Microtiter plates were incubated at 35±2° C. Bacterial cell growth was determined with the measurement of optical density at λ=600 nm each min over a time course of 16 h. Growth inhibition was calculated during the logarithmic growth of the bacterial cells with determination of the concentration inhibiting 50% (IC50) and 90% (IC90) of the growth. Table 1 provides the 90% growth inhibitory concentrations (IC90) in micromoles per liter of the compounds of present invention obtained against the strain Acinetobacter baumannii ATCC17961.
Regarding `Cn1c(-c2cn(-c3ccc(CN)cn3)nc2C(F)(F)F)cnc1C(=O)Nc1ccc(C(=O)N2CCN(C(=O)C3CC[N+](CC(=O)O)(CC4CNC4)CC3)CC2)c(Cl)c1` (stereo not drawn) [Example 21, 2-[4-[4-[4-[[5-[1-[5-(Aminomethyl)-2-pyridyl]-3-(trifluoromethyl)pyrazol-4-yl]-1-methyl-imidazole-2-carbonyl]amino]-2-chloro-benzoyl]piperazine-1-carbonyl]-1-(azetidin-3-ylmethyl)piperidin-1-ium-1-yl]acetic Acid.1:1 formic Acid.1:1 formate], the IC90 – broadly, the concentration at which the effect reaches the 90% level – came to 320 nM. Consider `COc1ccc(-n2cc(-c3cnc(C(=O)Nc4ccc(C(=O)N5CCN(C(=O)C6CC[N+](CC(=O)O)(CC7CNC7)CC6)CC5)c(Cl)c4)n3C)c(C(F)(F)F)n2)nc1` (stereo not drawn) [Example 22, 2-[1-(azetidin-3-ylmethyl)-4-[4-[2-chloro-4-[[5-[1-(5-methoxy-2-pyridyl)-3-(trifluoromethyl)pyrazol-4-yl]-1-methyl-imidazole-2-carbonyl]amino]benzoyl]piperazine-1-carbonyl]piperidin-1-ium-1-yl]acetic acid. 1:1 formate], for which the IC90 is 330 nM.

As to `Cn1c(-c2cn(-c3ccc(NCc4ccccn4)cn3)nc2C(F)(F)F)cnc1C(=O)Nc1ccc(C(=O)N2CCN(C(=O)C3CC[N+](CC(=O)O)(CC4CNC4)CC3)CC2)c(Cl)c1` (stereo not drawn) [Example 23, 2-[1-(azetidin-3-ylmethyl)-4-[4-[2-chloro-4-[[1-methyl-5-[1-[5-(2-pyridylmethylamino)-2-pyridyl]-3-(trifluoromethyl)pyrazol-4-yl]imidazole-2-carbonyl]amino]benzoyl]piperazine-1-carbonyl]piperidin-1-ium-1-yl]acetic acid. 1:1 2,2,2-trifluoroacetate], the IC90 is 340 nM.

For `Cn1c(-c2cn(-c3ccc(NCC4(N)CCCC4)cn3)nc2C(F)(F)F)cnc1C(=O)Nc1ccc(C(=O)N2CCN(C(=O)C3CC[N+](CC(=O)O)(CC4CNC4)CC3)CC2)c(Cl)c1` (stereo not drawn) [Example 24, 2-[4-[4-[4-[[5-[1-[5-[(1-aminocyclopentyl)methylamino]-2-pyridyl]-3-(trifluoromethyl)pyrazol-4-yl]-1-methyl-imindazole-2-carbonyl]amino]-2-chloro-benzoyl]piperazine-1-carbonyl]-1-(azetidin-3-ylmethyl)piperidin-1-ium-1-yl]acetic acid. 1:1 2,2,2-trifluoroacetic acid. 1:1 2,2,2-trifluoroacetate], the IC90 turned out to be 350 nM. As for `CNc1ccc(-n2cc(-c3cnc(C(=O)Nc4ccc(C(=O)N5CCN(C(=O)C6CC[N+](CC(=O)O)(CC7CNC7)CC6)CC5)c(Cl)c4)n3C)c(C(F)(F)F)n2)nc1` (stereo not drawn) [Example 25, 2-[1-(azetidin-3-ylmethyl)-4-[4-[2-chloro-4-[[1-methyl-5-[1-[5-(methylamino)-2-pyridyl]-3-(trifluoromethyl)pyrazol-4-yl]imidazole-2-carbonyl]amino]benzoyl]piperazine-1-carbonyl]piperidin-1-ium-1-yl]acetic acid. 1:1 formate], the IC90 came out at 350 nM. As for `Cn1c(-c2cn(-c3ccc(N4CCOCC4)cn3)nc2C(F)(F)F)cnc1C(=O)Nc1ccc(C(=O)N2CCN(C(=O)C3CC[N+](CC(=O)O)(CC4CNC4)CC3)CC2)c(Cl)c1` (stereo not drawn) [Example 26, 2-[1-(azetidin-3-ylmethyl)-4-[4-[2-chloro-4-[[1-methyl-5-[1-(5-morpholino-2-pyridyl)-3-(trifluoromethyl)pyrazol-4-yl]imidazole-2-carbonyl]amino]benzoyl]piperazine-1-carbonyl]piperidin-1-ium-1-yl]acetic acid. 1:1 formate], the figure is 360 nM.
